# Target: arrestin-1 (visual arrestin) (Bos taurus, UniProt P08168, F197A/F85A)
# Assay: 2D 1H-15N TROSY NMR chemical shift titration fitted to a […] model
# Assay type: binding
# Chain of arrestin-1 (visual arrestin) (P08168 whole entry F85A/F197A): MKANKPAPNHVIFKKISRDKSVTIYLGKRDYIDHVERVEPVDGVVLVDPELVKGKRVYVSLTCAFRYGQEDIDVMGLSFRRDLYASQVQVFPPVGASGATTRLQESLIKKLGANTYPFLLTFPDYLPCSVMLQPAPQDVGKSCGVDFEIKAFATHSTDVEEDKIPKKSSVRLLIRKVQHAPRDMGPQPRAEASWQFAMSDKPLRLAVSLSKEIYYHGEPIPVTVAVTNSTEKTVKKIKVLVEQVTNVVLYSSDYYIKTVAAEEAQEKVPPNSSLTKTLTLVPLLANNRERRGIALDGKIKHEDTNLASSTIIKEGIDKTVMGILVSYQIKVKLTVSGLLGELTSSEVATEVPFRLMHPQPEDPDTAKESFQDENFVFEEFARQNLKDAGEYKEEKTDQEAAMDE
smiles,measurement,value
O=P(O)(O)O[C@H]1[C@H](OP(=O)(O)O)[C@@H](OP(=O)(O)O)[C@H](OP(=O)(O)O)[C@@H](OP(=O)(O)O)[C@H]1OP(=O)(O)O [IP6],Kd,160 ± 60 µM

# Reference: article PMC3074303 (Biochemistry, 2010)
